Measurements published in BindingDB's records for doi:10.1073/pnas.83.13.4918 (Merck Sharp & Dohme Research Laboratories, 1986).
pKi: −log10 of the molar value. Where a SMILES comes first, the peptide text is derived from it. [ ]: non-standard residue; d: D form. The star is where a group is joined. sY = N[C@@H](Cc1ccc(OS(=O)(=O)O)cc1)C(=O)O; Cbz = O=C(OCc1ccccc1)*

Assays:
[1] = target: Gamma-aminobutyric acid receptor subunit alpha-1 (Rattus norvegicus, UniProt P62813)
Cholecystokinin = target: T1, Cholecystokinin (Rattus norvegicus, UniProt P01355)
T1 sequence (P01355 whole entry): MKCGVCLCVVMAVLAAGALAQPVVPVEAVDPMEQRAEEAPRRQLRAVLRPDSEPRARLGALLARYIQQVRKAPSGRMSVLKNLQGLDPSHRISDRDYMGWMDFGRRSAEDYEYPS

[2] = target: GABA(A) receptor-associated protein (Sus scrofa, UniProt D7RA28)
GABA(A) receptor-associated protein, sequence (D7RA28 whole entry): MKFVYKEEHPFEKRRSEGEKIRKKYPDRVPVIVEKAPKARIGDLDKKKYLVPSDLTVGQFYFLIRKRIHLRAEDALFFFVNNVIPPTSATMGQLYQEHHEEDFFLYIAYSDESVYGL

Gamma-aminobutyric acid receptor subunit alpha-1, sequence (P62813 whole entry): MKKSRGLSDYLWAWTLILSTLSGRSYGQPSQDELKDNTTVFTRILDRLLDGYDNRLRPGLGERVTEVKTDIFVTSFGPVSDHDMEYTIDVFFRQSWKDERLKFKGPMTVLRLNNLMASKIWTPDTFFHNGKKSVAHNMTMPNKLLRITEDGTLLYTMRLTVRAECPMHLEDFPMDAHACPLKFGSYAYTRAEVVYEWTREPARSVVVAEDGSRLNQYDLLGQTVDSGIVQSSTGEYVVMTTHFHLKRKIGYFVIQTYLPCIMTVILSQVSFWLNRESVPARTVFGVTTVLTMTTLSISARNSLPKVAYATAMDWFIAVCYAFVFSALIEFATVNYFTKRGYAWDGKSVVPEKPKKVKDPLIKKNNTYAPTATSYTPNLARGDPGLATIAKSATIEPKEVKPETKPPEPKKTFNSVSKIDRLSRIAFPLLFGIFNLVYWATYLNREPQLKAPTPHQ

| SMILES | pKi [1] | pKi (Cholecystokinin) | pKi [2] |
| --- | --- | --- | --- |
| O=C1Nc2ccc(Cl)cc2C(c2ccccc2)=N[C@H]1Cc1c[nH]c2ccccc12 [CCK antagonist synthetic 6] | 5.25 | < 5.00 | – |
| O=C(O)CN1C(=O)[C@@H](Cc2c[nH]c3ccccc23)N=C(c2ccccc2F)c2ccccc21 [CCK antagonist synthetic 13] | – | 6.52 | < 5.00 |
| Cc1nnc2n1-c1ccccc1C(c1ccccc1F)=NC2Cc1c[nH]c2ccccc12 (centres undefined) | – | 6.52 | 6.10 |
| CSCC[C@H](NC(=O)[C@H](Cc1ccc(OS(=O)(=O)O)cc1)NC(=O)OCc1ccccc1)C(=O)NCC(=O)N[C@@H](Cc1c[nH]c2ccccc12)C(=O)N[C@@H](CCSC)C(=O)N[C@@H](CC(=O)O)C(N)=O [Benzyloxycarbonyl CCK(27-32)NH2] (Cbz-[sY]MGWMD-NH2) | – | 5.46 | – |
| CC(=O)NC1N=C(c2ccccc2F)c2ccccc2NC1=O (centres undefined) [CCK antagonist synthetic 16] | – | < 5.00 | – |
| CN1C(=O)[C@@H](NC(=O)c2cc3ccccc3[nH]2)N=C(c2ccccc2)c2ccccc21 [1H-Indole-2-carboxylic acid (1-methyl-2-oxo-5-phenyl-2,3-dihydro-1H-benzo[e][1,4]diazepin-3-yl)-amide: 0.1C4H10O. 0.15CH2Cl2] | – | – | < 5.00 |
| O=C1Nc2ccccc2C(c2ccccc2F)=N[C@@H]1Cc1c[nH]c2ccccc12 [CCK antagonist synthetic 9] | – | 6.30 | < 5.00 |
| O=C(NC(Cc1c[nH]c2ccccc12)C(=O)O)c1ccc(Cl)cc1 (centres undefined) | – | < 5.00 | – |
| CN1C(=O)[C@@H](Cc2c[nH]c3ccccc23)N=C(c2ccccc2)c2cc(Cl)ccc21 [CCK antagonist synthetic 7] | – | 5.85 | – |
| O=C1Nc2ccc(Cl)cc2C(c2ccccc2)=N[C@@H]1Cc1c[nH]c2ccccc12 | < 5.00 | 5.47 | – |
| O=C(NC1N=C(c2ccccc2)c2ccccc2NC1=O)c1cc2ccccc2[nH]1 (centres undefined) | < 5.00 | 8.33 | – |
| O=C(NC1N=C(c2ccccc2F)c2ccccc2NC1=O)c1cc2ccccc2[nH]1 (centres undefined) | – | 8.68 | 5.52 |
| CN1C(=O)[C@H](NC(=O)c2cc3ccccc3[nH]2)N=C(c2ccccc2)c2ccccc21 | – | – | < 5.00 |
| O=C1Nc2ccccc2C(c2ccccc2)=N[C@@H]1Cc1c[nH]c2ccccc12 [CCK antagonist synthetic 8] | < 5.00 | 5.92 | – |
| Cc1ccc2c(C(=O)NC3N=C(c4ccccc4F)c4ccccc4NC3=O)c[nH]c2c1 (centres undefined) [CCK antagonist synthetic 15] | – | 5.96 | – |
| CN1C(=O)[C@@H](Cc2c[nH]c3ccccc23)N=C(c2ccccc2F)c2ccccc21 [CCK antagonist synthetic 11] | – | 6.57 | < 5.00 |
| O=C(O)CN1C(=O)C(NC(=O)c2cc3ccccc3[nH]2)N=C(c2ccccc2)c2ccccc21 (centres undefined) [CCK antagonist synthetic 20] | – | 8.85 | < 5.00 |
| CN1C(=O)C(NC(=O)c2cc3ccccc3[nH]2)N=C(c2ccccc2)c2cc(F)ccc21 (centres undefined) [CCK antagonist synthetic 22] | – | 8.85 | 5.11 |
